Experimental data: patent US20210262032A1, “DETERMINING RESPONDERS TO INFLAMMATION TREATMENT” (RAMBAM MED-TECH LTD., priority 2018, published 2021)

Experiments:
[1] = system: Tregs in intestinal tissue; assay: Estimated Treg proportion scores in intestinal tissue by xCell deconvolution of public dataset GEO73661; assay type: in vivo, human; conditions: post-treatment vs baseline, xCell estimate from GEO73661
Experimental: Deconvolved estimated Tregs proportion scores in intestinal tissue and peripheral blood at baseline and in different time points post-treatment in responding and non-responding patients were evaluated usind xCell.
xCell, which is a computational deconvolution method based on ssGSEA enrichment of cell specific signatures for estimation of abundance scores of immune cell types from the gene expression data, was used. Only cells that had non-zero values in at least 75% of the samples were included.
Estimated cell proportions in intestinal tissue were tested using a publicly available dataset (GEO73661). […] Although Treg accumulation is observed in blood of non-responders, tissue Tregs are not reduced.

TNFα expression = assay: Whole blood treated with Vedolizumab, LPA or combination; TNFα expression by qPCR; assay type: cell-based, human; conditions: whole blood from healthy donors, 3 hours at 37 degrees, Vedolizumab 600 μg/ml, LPA 1 μM, fold-induction over untreated control
Experimental: FIGS. 11A-B: […] synergistic effect between Vedolizumab and LPA in-Vitro. (11A-B) Bar charts showing inflammatory cytokine expression including (11A) TNFα and (11B) IL-1β post incubation with Vedolizumab (600 μg/ml), LPA (1 μM) and co-incubation of the two substances, using qPCR for quantification. Un-treated whole blood basal expression served as control and values were expressed as fold-induction over control. Data were pooled from three independent experiments. Significance was calculated using Wilcoxon-test (two-sided; μ=1)
The combined effect of Vedolizumab and LPA was next tested on blood cells. Whole blood from healthy donors was treated with Vedolizumab, LPA or a combination for 3 hours at 37 degrees and pro-inflammatory cytokine expression was measured. Untreated whole blood was used as a control. […] This may be due to the fact that there are 6 LPA receptors and it appears that antagonism of only one of them is not sufficient to completely counter act the effect of the LPA.

IBD (UC and CD) patients = assay: Primary clinical response to Vedolizumab in IBD patients, cohort 1; assay type: in vivo, human; conditions: number of patients with 0—None / 1—partial / 2—full response; for clinical 2 w (0/1/2): 2 weeks; for clinical 14 w (0/1/2): 14 weeks; for clinical 26 w (0/1/2): 26 weeks; for clinical 52 w (0/1/2): 52 weeks
Source text: The exploratory study cohort consisted of 73 whole blood samples from 22 IBD (UC and CD) patients, who received Vedolizumab treatment at the Rambam Health Care Campus (RHCC) and met the study inclusion criteria. Patients that had past exposure to Vedolizumab, or patients who had active infection including febrile diseases or intra-abdominal or perianal abscess were excluded.
Samples were collected at the following time-points: pretreatment, 2 weeks and 14 weeks post first treatment and following one year of treatment for those patients who received long-term care. Patients were classified for response by clinical score after one-year follow-up and were clinically characterized as detailed in table 2.

Substance	Tregs frequency in intestinal tissue ([1]; non-responders)	Tregs frequency in intestinal tissue ([1]; responding patients)	TNFα expression (TNFα expression)	clinical 2 w (0/1/2) (IBD (UC and CD) patients; Non-responders (n = 10))	clinical 14 w (0/1/2) (IBD (UC and CD) patients; Non-responders (n = 10))	clinical 26 w (0/1/2) (IBD (UC and CD) patients; Non-responders (n = 10))	clinical 52 w (0/1/2) (IBD (UC and CD) patients; Non-responders (n = 10))	clinical 2 w (0/1/2) (IBD (UC and CD) patients; Responders (n = 12))	clinical 14 w (0/1/2) (IBD (UC and CD) patients; Responders (n = 12))	clinical 26 w (0/1/2) (IBD (UC and CD) patients; Responders (n = 12))	clinical 52 w (0/1/2) (IBD (UC and CD) patients; Responders (n = 12))
Vedolizumab	unaffected	reduces Tregs frequency	neither Vedolizumab nor LPA alone had an effect	5/5/0	7/2/1	8/2/0	10/0/0	1/7/0	1/5/2	0/4/5	0/0/12
lysophosphatidic acid [LPA]			neither Vedolizumab nor LPA alone had an effect								
